# Source: PMC4765731 (Anticancer research, 2015)
# Where two headings read alike, the source gives them in different places.
# Legend:
# [1] = tested on: human lung (A549) cancer cell line; assay: Cell viability, crystal violet dye binding assay, A549; format: cell-based
# A549 cells [2] = assay: ROS production, DCFDA dye; format: cell-based, human; details: 30 min
# A549 cells [3] = assay: Mitochondrial membrane potential; format: cell-based, human; details: rhodamine-123
# [4] = Homo sapiens, A549, 48 h, read-out: CC50 (cytotoxic concentration), A549, A549, 48 h exposure, crystal violet, mean ± SD
# [5] = read-out: CC50 (cytotoxic concentration), A549, A549, 48 h exposure, crystal violet, mean ± SD
smiles,measurement,setting,value
"CC(=O)Oc1ccc(-c2cc3ccc(OC(C)=O)c(OC(C)=O)c3oc2=O)cc1 [Compound 6, 8-(acetyloxy)-3-[4-(acetyloxy)phenyl]-2-oxo-2H-chromen-7-yl acetate]",CC50,[1]; [4],75.2 µM
same,CC50,[1]; [5],75.9 ± 0.65 µM
"CC(=O)Oc1ccc2cc(-c3ccc(S(C)(=O)=O)cc3)c(=O)oc2c1OC(C)=O [Compound 7, 8-(acetyloxy)-3-(4-methanesulfonylphenyl)-2-oxo-2H-chromen-7-yl acetate]",ROS fluorescence intensity in comparison to untreated control (100%),"A549 cells [2]; A549, 10 μM",107.1%
same,ROS fluorescence intensity in comparison to untreated control (100%),"A549 cells [2]; A549, 25 μM",129.0%
same,ROS fluorescence intensity in comparison to untreated control (100%),"A549 cells [2]; A549, 50 μM",136.6%
same,ROS fluorescence intensity in comparison to untreated control (100%),"A549 cells [2]; A549, 75 μM",146.0%
same,ROS fluorescence intensity in comparison to untreated control (100%),"A549 cells [2]; A549, 100 μM",231.2%
same,"fold decrease in potency compared to docetaxel (CC50, A549)","[1]; A549, 48 h, 7 vs docetaxel",2.5 fold
same,CC50,[1]; [5],24.2 ± 0.7 µM
same,MMP fluorescence intensity in comparison to untreated control (100%),"A549 cells [3]; A549, 10 μM",96.4%
same,MMP fluorescence intensity in comparison to untreated control (100%),"A549 cells [3]; A549, 25 μM",94.8%
same,MMP fluorescence intensity in comparison to untreated control (100%),"A549 cells [3]; A549, 50 μM",93.4%
same,MMP fluorescence intensity in comparison to untreated control (100%),"A549 cells [3]; A549, 75 μM",92.9%
same,MMP fluorescence intensity in comparison to untreated control (100%),"A549 cells [3]; A549, 100 μM",81.7%
"CS(=O)(=O)c1ccc(-c2cc3ccccc3oc2=O)cc1 [Compound 9, 3-(4-methanesulfonylphenyl)-2H-chromen-2-one]",CC50,[1]; [4],> 100 µM
"CC(=O)Oc1ccc(-c2c(C)c3ccccc3oc2=O)cc1 [Compound 10, 4-(4-methyl-2-oxo-2H-chromen-3-yl)phenyl acetate]",CC50,[1]; [4],> 100 µM
"Cc1c(-c2ccc(S(C)(=O)=O)cc2)c(=O)oc2ccccc12 [Compound 11, 3-(4-methanesulfonylphenyl)-4-methyl-2H-chromen-2-one]",CC50,[1]; [4],> 100 µM
"CC(=O)O[C@@]12CO[C@@H]1C[C@H](O)[C@@]1(C)C(=O)[C@H](O)C3=C(C)[C@@H](OC(=O)[C@H](O)[C@@H](NC(=O)OC(C)(C)C)c4ccccc4)C[C@@](O)([C@@H](OC(=O)c4ccccc4)[C@H]21)C3(C)C [Docetaxel, reference compound]",CC50,[1]; [4],9.47 µM
same,CC50,[1]; [5],9.4 ± 0.07 µM
